Earlier results as cited in the CATMoS acute toxicity set (Mansouri et al. 2021).
Where “and” joins values, the source holds several entries; their conditions need not be identical. Identical values can stand only once.

Assay: rat acute oral toxicity
Conditions: in vivo

SMILES | LD50
O=C1CCc2cc(C=CCN3CCN(c4cccc(Cl)c4)CC3)ccc2N1 | 500 mg/kg
CC(C=O)CCC(C)(O)C=O (centres undefined) | 5890 mg/kg
O=C(O)CCc1nc2ccccc2[nH]1 | 1700 mg/kg
O=C(c1cccnc1)N1CCN=C1Nc1c(Cl)cccc1Cl | 80 mg/kg
CC1COC(C(Cl)(Cl)Cl)O1 (centres undefined) | 380 mg/kg
Cc1cccc(C)c1NC(=O)CC12CCCN1CCC2 | 255 mg/kg
O=P(OC=C(Cl)Cl)(OCCCl)OCCCl | 25 mg/kg
CCCCCCCCCC(=O)OCCN1CCN(CCCN2c3ccccc3Sc3ccc(C(F)(F)F)cc32)CC1 | 19 mg/kg
CC(C)CC(C)CC(O)CC(C)C (centres undefined) | 17000 mg/kg
NC(=O)c1cc([N+](=O)[O-])cc([N+](=O)[O-])c1 | 1250 mg/kg
CC(C)=CCCC(C)CCO (centres undefined) | 3450 mg/kg
S=C=NCCN=C=S | 112 mg/kg
CCOc1cc(OCC)c(C(=O)CCC(=O)O)cc1OCC | 2450 mg/kg
CC(=O)CCCOC(C)=O | 6080 mg/kg
O=C(Nc1cccc(Cl)c1)OCC#CCCl | 527 mg/kg
CC[N+](CC)(CC)CCOC(=O)C(C1CCCC1)C1CCCC1 | 780 mg/kg
O=S(=O)(O)c1cccc(Nc2nc(Nc3ccc(C=Cc4ccc(Nc5nc(Nc6cccc(S(=O)(=O)O)c6)nc(N(CCO)CCO)n5)cc4S(=O)(=O)O)c(S(=O)(=O)O)c3)nc(N(CCO)CCO)n2)c1 | 1960 mg/kg
CCN(CC)C(=O)CSc1ccc(Cl)nn1 | 1550 mg/kg
O=Cc1cccc2ccccc12 | 667 mg/kg
CCOC(=O)[C@H](CCc1ccccc1)N[C@@H](C)C(=O)N1CCC[C@H]1C(=O)O | 2970 mg/kg
C1CN2CCC1CC2 | 81.2 mg/kg
CC(O)CN(C)C (centres undefined) | 1740 mg/kg
CC(COCCN)COCCCN (centres undefined) | 242 mg/kg
CCC1CCCC(CC)C1N (centres undefined) | 157 mg/kg
COP(=O)(OC)Oc1ccc(SC)cc1 | 7 mg/kg

SMILES | LD50
CCC#N | 39 mg/kg
CCCc1nc(C)cc(OC(=O)N(C)C)n1 | 200 mg/kg
CCCCOC(=O)c1c[n+](C)c2n(c1=O)C(C)CCC2 (centres undefined) | 1370 mg/kg
S=P(N1CC1)(N1CC1)N1CC1 | 23 mg/kg
Cc1cncc(C)n1 | 880 mg/kg
O[C@@H](c1cc(C(F)(F)F)nc2c(Cl)cc(Cl)cc12)[C@@H]1CCCCN1 | 1130 mg/kg
CCC(OC(N)=O)c1ccccc1Cl (centres undefined) | 710 mg/kg
CN(C)S(=O)(=O)CCCCNC(=O)N(CCCl)N=O | 250 mg/kg
CCOC(=O)C1=CN(C(=O)CC)C2CCCC(C)N2C1=O (centres undefined) | 2970 mg/kg
CC1(C)[C@H]2CC[C@](C)(O)[C@@H]1C2 | 2050 mg/kg
CC(=O)Nc1ccc2c(c1)sc1ccccc12 | 1200 mg/kg
O=NN1CCCCC1 | 200 mg/kg
C=CC(=O)OCCCl | 180 mg/kg
CC(C(=O)Nc1cc(-c2ccccc2)nn1-c1ccccc1)N(C)C (centres undefined) | 815 mg/kg
CC(=O)c1ccccc1Cl | 1820 mg/kg
CN(C)c1nc(N(C)C)nc(N(C)C)n1 | 350 mg/kg
CC(=O)NNC(=O)c1ccccn1 | 673 mg/kg
CC(C)(SC(=O)N1CCCCC1)c1ccccc1 | 946 mg/kg
CCN(N=O)C(C)OC (centres undefined) | 1000 mg/kg
Clc1ccc(OCOc2ccc(Cl)cc2)cc1 | 5800 mg/kg
ClC1=C(Cl)[C@]2(Cl)[C@H]3[C@H]([C@H]4C=C[C@H]3C4)[C@@]1(Cl)C2(Cl)Cl | 7 mg/kg
CN(c1ccc(Cl)cc1Cl)c1c([N+](=O)[O-])cc([N+](=O)[O-])cc1C(F)(F)F | 4.5 mg/kg
CC(Cl)C(Cl)Cl (centres undefined) | 1230 mg/kg
O=C(O)c1cccnc1C(=O)O | 1550 mg/kg
CCCCCCCCCCCC[N+](C)(C)Cc1ccccc1 | 400 mg/kg and 230 mg/kg

SMILES | LD50
C=CC(O)CCCCC (centres undefined) | 340 mg/kg
CC(=NO)C(C)(O)C#Cc1ccccc1 (centres undefined) | 3120 mg/kg
C[n+]1ccccc1 | 285 mg/kg
NC(=O)Nc1cccc2c3c([nH]c12)CCCC3 | 2770 mg/kg
CCOc1occ2cnc(C)c(O)c12 | 2150 mg/kg
C[C@@H]1CC[C@H]2[C@@H](C)C(=O)O[C@@H]3O[C@@]4(C)CC[C@@H]1[C@]32OO4 | 5580 mg/kg
CCCCC(O)c1ccccc1 (centres undefined) | 5430 mg/kg
C=CCC(CCN(CC)CC)(C(=O)OCC)c1ccccc1 (centres undefined) | 200 mg/kg
Fc1cc(Cl)c2nc(C(F)(F)F)[nH]c2c1 | 1.98 mg/kg
NCCCN1CCOCC1 | 3560 mg/kg
CCOc1ccc(F)cc1C(CN(C)C)C(C)CC (centres undefined) | 324 mg/kg
CCN(CC)CCc1nc(-c2ccccc2)no1 | 1650 mg/kg
OC(CCl)COCCCCCOCC(O)CCl (centres undefined) | 2250 mg/kg
CC(C)OC(=O)C=CC(=O)OC(C)C | 2140 mg/kg and 3250 mg/kg
CCOc1ccc(N2CC(C(=O)N3CCNCC3)CC2=O)cc1 (centres undefined) | 550 mg/kg
O=C(c1ccc2ccccc2n1)N1CCN=C1Nc1c(Cl)cccc1Cl | 44 mg/kg
CCOP(=S)(OCC)Oc1cc(C)[nH]n1 | 12 mg/kg
CC(C)(C)NCC(O)COc1ccccc1C#N (centres undefined) | 639 mg/kg
O=[N+]([O-])c1c(Cl)c(Cl)c(Cl)c2nc(C(F)(F)F)[nH]c12 | 19.3 mg/kg
CO[Si](OC)(OC)c1ccccc1 | 1050 mg/kg
C#CCOC(=O)/C=C(C)/C=C/CC(C)CCCC(C)C (centres undefined) | 4900 mg/kg
CCCc1ccc(O)c(OC)c1 | 2600 mg/kg
CCCC[N+](CCCC)(CCCC)CCCC | 1990 mg/kg
Cc1ccn(C(=O)NCCCCCCNC(=O)n2ccc(C)n2)n1 | 4850 mg/kg
